From patent publication US12662465B2, “EGFR inhibitors” (Blueprint Medicines Corporation, priority 2021, dated 2026)

Assays:
EGFR enzyme = biological target: T1, EGFR enzyme (Homo sapiens, UniProt P00533); test: Biochemical EGFR inhibition assays (Biological Example 1), enzyme form not specified; conditions: Biological Example/Assay 1; read-out: inhibitory activity
T1 construct: From knowledge only, the SignalChem E10-1xx 'G' products are GST-tagged cytoplasmic-domain constructs

EGFR L858R = biological target: T2, EGFR L858R (Homo sapiens, UniProt P00533, L858R); test: Biochemical EGFR inhibition assay (Caliper mobility shift), EGFR L858R; conditions: read-out: Enz EGFR_L858R IC50
T2 construct: purchased SignalChem E10-122BG
T2 sequence (P00533 25-1210 L858R): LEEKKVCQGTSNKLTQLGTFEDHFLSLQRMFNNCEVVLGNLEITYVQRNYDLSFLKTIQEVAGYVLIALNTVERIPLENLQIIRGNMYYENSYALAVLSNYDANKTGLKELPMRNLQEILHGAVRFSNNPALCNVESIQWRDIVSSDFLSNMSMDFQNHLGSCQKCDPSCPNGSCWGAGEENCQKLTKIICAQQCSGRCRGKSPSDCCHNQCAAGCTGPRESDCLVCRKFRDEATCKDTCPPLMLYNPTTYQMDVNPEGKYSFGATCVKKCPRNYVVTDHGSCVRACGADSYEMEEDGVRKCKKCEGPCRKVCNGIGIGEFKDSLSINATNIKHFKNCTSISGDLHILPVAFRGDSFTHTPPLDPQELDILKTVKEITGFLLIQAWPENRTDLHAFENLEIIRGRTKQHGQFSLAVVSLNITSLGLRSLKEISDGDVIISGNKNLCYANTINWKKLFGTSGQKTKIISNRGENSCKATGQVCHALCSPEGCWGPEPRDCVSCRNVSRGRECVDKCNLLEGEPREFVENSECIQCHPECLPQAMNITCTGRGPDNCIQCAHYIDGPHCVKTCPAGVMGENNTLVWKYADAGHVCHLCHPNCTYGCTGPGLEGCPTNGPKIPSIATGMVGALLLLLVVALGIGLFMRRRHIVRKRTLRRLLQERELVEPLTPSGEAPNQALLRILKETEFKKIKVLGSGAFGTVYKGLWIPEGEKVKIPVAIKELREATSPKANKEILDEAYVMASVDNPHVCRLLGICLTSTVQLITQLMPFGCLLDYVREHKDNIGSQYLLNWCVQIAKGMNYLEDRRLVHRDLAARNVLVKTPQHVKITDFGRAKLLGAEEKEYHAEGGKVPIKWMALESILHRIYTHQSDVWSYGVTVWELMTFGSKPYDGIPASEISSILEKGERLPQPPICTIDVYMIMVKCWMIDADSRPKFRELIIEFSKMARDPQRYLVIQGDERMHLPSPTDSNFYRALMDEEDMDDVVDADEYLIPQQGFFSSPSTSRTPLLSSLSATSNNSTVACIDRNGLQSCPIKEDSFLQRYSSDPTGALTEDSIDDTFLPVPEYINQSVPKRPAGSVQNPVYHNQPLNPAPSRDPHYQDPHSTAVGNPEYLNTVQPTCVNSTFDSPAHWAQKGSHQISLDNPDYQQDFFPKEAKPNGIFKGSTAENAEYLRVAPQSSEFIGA

EGFR (d746-750) = biological target: T3, EGFR (d746-750) (Homo sapiens, UniProt P00533, DEL746-750); test: Biochemical EGFR inhibition assay (Caliper mobility shift), EGFR (d746-750); conditions: read-out: Enz EGFR_Exon19-del746-750 IC50
T3 construct: purchased SignalChem E10-122JG
T3 sequence (P00533 with tags, fused parts or gaps DEL746-750 limits assumed): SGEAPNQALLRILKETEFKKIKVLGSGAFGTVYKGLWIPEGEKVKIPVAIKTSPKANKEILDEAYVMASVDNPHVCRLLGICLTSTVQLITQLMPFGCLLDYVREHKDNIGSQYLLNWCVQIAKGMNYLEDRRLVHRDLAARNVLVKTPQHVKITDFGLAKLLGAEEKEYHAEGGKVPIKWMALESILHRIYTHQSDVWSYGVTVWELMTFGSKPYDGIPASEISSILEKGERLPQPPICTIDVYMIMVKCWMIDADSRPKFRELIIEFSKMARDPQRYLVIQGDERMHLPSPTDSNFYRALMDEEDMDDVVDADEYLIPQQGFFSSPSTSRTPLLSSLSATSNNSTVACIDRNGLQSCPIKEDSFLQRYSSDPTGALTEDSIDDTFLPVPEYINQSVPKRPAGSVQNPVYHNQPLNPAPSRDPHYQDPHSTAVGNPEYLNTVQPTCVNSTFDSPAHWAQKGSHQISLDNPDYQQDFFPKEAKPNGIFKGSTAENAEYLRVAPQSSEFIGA

[1] = biological target: intracellular phosphorylation of EGFR (Tyr1068) in PC-9 cells (Ex19Del) (Homo sapiens, UniProt P00533, DEL746-750); test: PC-9 pEGFR AlphaLISA assay; format: cell-based; conditions: 4 hours compound incubation, read-out: Ext pEGFR_PC-9 Ex19Del IC50
Chain of intracellular phosphorylation of EGFR (Tyr1068) in PC-9 cells (Ex19Del) (P00533 with tags, fused parts or gaps DEL746-750): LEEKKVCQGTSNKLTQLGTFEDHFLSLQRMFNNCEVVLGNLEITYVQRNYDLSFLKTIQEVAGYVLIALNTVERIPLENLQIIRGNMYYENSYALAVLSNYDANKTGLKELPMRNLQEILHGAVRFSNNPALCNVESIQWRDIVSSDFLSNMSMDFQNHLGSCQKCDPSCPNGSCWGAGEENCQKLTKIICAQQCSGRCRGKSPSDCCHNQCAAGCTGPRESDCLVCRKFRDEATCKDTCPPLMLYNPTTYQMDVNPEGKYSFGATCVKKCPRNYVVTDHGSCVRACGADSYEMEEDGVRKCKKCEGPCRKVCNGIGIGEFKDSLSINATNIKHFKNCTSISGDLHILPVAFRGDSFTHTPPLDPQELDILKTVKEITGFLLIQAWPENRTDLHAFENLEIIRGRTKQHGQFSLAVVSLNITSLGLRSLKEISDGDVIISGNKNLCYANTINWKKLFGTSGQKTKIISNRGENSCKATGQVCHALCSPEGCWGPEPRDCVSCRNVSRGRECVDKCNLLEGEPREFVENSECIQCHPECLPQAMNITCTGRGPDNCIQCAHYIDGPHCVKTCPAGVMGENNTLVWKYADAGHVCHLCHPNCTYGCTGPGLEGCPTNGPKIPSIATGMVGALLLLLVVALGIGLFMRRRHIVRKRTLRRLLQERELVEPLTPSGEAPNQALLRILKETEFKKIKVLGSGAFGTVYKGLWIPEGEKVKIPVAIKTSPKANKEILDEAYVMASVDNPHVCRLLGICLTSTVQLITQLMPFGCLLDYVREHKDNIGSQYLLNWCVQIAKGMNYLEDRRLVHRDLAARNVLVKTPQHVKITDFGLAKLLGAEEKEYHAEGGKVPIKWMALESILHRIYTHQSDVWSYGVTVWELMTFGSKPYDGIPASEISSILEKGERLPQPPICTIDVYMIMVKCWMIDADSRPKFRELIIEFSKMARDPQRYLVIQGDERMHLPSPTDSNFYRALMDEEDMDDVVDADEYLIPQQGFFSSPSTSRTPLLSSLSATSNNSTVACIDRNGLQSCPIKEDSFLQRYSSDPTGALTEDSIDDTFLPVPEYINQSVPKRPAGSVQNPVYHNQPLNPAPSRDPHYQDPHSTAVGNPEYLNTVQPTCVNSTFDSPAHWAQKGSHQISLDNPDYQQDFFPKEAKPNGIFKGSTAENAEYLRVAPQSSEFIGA

EGFR M+ NSCLC patients = conditions: first line (1L), NSCLC harboring del19 and L858R mutations; cited from earlier work

T1 sequence (P00533 whole entry L858R, form open): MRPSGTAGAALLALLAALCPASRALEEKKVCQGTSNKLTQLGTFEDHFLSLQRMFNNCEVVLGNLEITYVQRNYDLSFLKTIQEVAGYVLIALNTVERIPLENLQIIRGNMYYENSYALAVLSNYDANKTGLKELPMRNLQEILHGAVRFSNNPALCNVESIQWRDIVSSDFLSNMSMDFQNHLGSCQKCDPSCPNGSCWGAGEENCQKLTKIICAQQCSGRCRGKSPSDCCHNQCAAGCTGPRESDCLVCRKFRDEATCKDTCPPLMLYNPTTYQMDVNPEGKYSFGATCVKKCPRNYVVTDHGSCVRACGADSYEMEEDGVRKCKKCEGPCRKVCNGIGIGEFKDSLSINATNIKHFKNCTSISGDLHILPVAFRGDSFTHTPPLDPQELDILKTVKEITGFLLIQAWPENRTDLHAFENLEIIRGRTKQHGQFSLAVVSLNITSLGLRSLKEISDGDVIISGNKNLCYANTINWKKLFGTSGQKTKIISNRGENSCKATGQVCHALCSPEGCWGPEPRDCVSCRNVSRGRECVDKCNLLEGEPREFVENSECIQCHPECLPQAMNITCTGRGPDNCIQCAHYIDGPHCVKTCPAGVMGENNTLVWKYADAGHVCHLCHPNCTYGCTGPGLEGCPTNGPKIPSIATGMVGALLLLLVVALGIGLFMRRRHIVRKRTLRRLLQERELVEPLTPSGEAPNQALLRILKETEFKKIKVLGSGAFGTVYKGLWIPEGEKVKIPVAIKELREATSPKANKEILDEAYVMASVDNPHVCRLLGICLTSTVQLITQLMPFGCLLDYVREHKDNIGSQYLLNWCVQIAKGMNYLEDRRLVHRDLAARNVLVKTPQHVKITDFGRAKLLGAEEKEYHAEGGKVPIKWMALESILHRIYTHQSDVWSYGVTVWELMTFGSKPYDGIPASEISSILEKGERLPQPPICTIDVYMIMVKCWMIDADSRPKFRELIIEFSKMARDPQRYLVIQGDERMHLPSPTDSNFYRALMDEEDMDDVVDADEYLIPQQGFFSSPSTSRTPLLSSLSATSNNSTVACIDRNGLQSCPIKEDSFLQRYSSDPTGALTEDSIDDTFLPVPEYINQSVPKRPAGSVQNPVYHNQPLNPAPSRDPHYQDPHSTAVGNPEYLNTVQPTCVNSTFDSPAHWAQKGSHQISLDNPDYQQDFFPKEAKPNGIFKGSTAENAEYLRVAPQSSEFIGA

Compound	IC50 (EGFR enzyme) [nM]	IC50 (EGFR L858R) [nM]	IC50 (EGFR (d746-750)) [nM]	IC50 [1] [nM]	progression-free survival (PFS) (EGFR M+ NSCLC patients) [mo]
[2H]c1ccc2cc(Nc3ncnc4cc(-c5cnn(C)c5)cc(O[C@H](C)CN(C)C)c34)ccc2n1 [Example 156, (R)-5-((1-(dimethylamino)propan-2-yl)oxy)-7-(1-methyl-1H-pyrazol-4-yl)-N-(quinolin-6-yl-2-d)quinazolin-4-amine]	–	< 10	< 10	≤ 10	–
[2H]c1c(-c2cnn(C)c2)cc(O[C@H](C)CN(C)C)c2c(Nc3ccc4ncccc4c3F)ncnc12 [Example 158, (R)-5-((1-(dimethylamino)propan-2-yl)oxy)-N-(5-fluoroquinolin-6-yl)-7-(1-methyl-1H-pyrazol-4-yl)quinazolin-8-d-4-amine]	–	< 10	< 10	≤ 10	–
[2H]c1c(-c2cc(O[C@H](C)CN(C)C)c3c(Nc4ccc5ncccc5c4F)ncnc3c2)cnn1C [Example 159, (R)-5-((1-(dimethylamino)propan-2-yl)oxy)-N-(5-fluoroquinolin-6-yl)-7-(1-methyl-1H-pyrazol-4-yl-5-d)quinazolin-4-amine]	–	10.1 to 50	< 10	≤ 10	–
C=CC(=O)Nc1cc(Nc2nccc(-c3cn(C)c4ccccc34)n2)c(OC)cc1N(C)CCN(C)C [osimertinib]	–	–	–	–	18.9

More lines, main results first:

IC50 (EGFR enzyme) [nM]	IC50 (EGFR L858R) [nM]	IC50 (EGFR (d746-750)) [nM]	IC50 [1] [nM]	Compound	progression-free survival (PFS) (EGFR M+ NSCLC patients) [mo]
> 10000	–	–	–	[2H]c1c(-c2cc(O[C@H](C)CN(C)C)c3c(Nc4ccc5ncccc5c4OC([2H])([2H])[2H])ncnc3c2)cnn1C	–
–	10.1 to 50	< 10	≤ 10	C[C@H](CN(C)C)Oc1cc(N(C)C)cc2ncnc(Nc3ccc4ncccc4c3F)c12 [Example 153, (R)-5-((1-(dimethylamino)propan-2-yl)oxy)-N4-(5-fluoroquinolin-6-yl)-N7,N7-dimethylquinazoline-4,7-diamine]	–
–	< 10	< 10	≤ 10	CC(=O)N1CC2(C1)CN(c1cc(O[C@H](C)CN(C)C)c3c(Nc4ccc5ncccc5c4F)ncnc3c1)C2 [Example 154, (R)-1-(6-(5-((1-(dimethylamino)propan-2-yl)oxy)-4-((5-fluoroquinolin-6-yl)amino)quinazolin-7-yl)-2,6-diazaspiro[3.3]heptan-2-yl)ethan-1-one]	–
–	< 10	< 10	≤ 10	[2H]c1ccc2c(F)c(Nc3ncnc4cc(-c5cnn(C)c5)cc(O[C@H](C)CN(C)C)c34)ccc2n1 [Example 155, (R)-5-((1-(dimethylamino)propan-2-yl)oxy)-N-(5-fluoroquinolin-6-yl-2-d)-7-(1-methyl-1H-pyrazol-4-yl)quinazolin-4-amine]	–
–	> 50.1	> 50.1	> 50.1	C[C@H](Oc1cc(-c2cnn(C)c2)cc2ncnc(Nc3ccc4ncccc4c3F)c12)[C@@H]1COCCN1 [Example 157, N-(5-fluoroquinolin-6-yl)-7-(1-methyl-1H-pyrazol-4-yl)-5-((S)-1-((S)-morpholin-3-yl)ethoxy)quinazolin-4-amine]	–
